Experimental data reported in patent publication US20230069963A1, “PYRAZOLO[1,5-A]PYRIMIDINE MACROCYCLIC COMPOUND” (priority 2018, published 2023).
Structures can show the parent of a compound that is named as a salt. Where two headings read alike, the source gives them in different places.

Legend:
D486N mutant strain = settings: D486N mutant vs wild strain; cited from earlier work
[1] = amide bond, HATU, DMF
RSV ATCC VR-1540 (A2) = assay: microbe, parasite or virus in culture; format: cell-based; settings: human respiratory syncytial virus, HEp-2, 96 h; Hep2 cells, incubated for 4 days, CPE detected with XTT assay (absorbance 450 nm); read-out: EC50 (nmol/L) against RSV A2 strain
[2] = test system: F protein D486N mutant strain of RSV A2 strain; format: cell-based, respiratory syncytial virus (RSV); settings: Hep2 cells, incubated for 4 days, CPE detected with XTT assay (absorbance 450 nm); read-out: EC50 (nmol/L) against F protein D486N mutant strain of RSV A2 strain

SMILES | EC50 (RSV ATCC VR-1540 (A2)) [nmol/L] | EC50 [2] [nmol/L] | other results
Cc1cn2nc([C@@H]3CCCCN3C(=O)c3cc(Cl)ccc3NS(C)(=O)=O)cc2nc1N1CC[C@H](N)C1 [GS-5806] | – | – | reduction of activity against the D486N mutant strain compared to the activity against the wild strain (D486N mutant strain): approximately 1000 times
CN1CCNC(=O)COc2ccc(F)cc2C(=O)N2CCCC[C@H]2c2cc3nc(Cl)cc1n3n2 | – | – | ring closure, yield of all isomers ([1]; from CN(CCNC(=O)COc1ccc(F)cc1C(=O)O)c1cc(Cl)nc2cc([C@@H]3CCCCN3)nn12, 10.0 mM, 25.0 °C, 15.0 h): 64.8%
Cc1ccc2c(c1)C(=O)N1CCCCC1c1cc3nc(C4CC(O)C4)cc(n3n1)N(C)CCNC(=O)CO2 [Example 117, (18aS)-13-(trans-3-hydroxycyclobutyl)-2,11-dimethyl-8,9,10,11,19,20,21,22-octahydro-18aH,24H-18,15-(metheno)pyrido[2,1-l]pyrimido[6,1-h][1,4,7,9,10,13]benzoxapentaazacyclohexadecine-7,24(6H)-dione] | 0.773 | 0.742 | –
CN1CCCCS(=O)(=O)NC(C)(c2ccccc2)C(=O)N2CCCC[C@H]2c2cc3nc(Cl)cc1n3n2 (stereo partly drawn) | – | – | ring closure, yield of all isomers ([1]; from CN(CCCCS(=O)(=O)NC(C)(C(=O)O)c1ccccc1)c1cc(Cl)nc2cc([C@@H]3CCCCN3)nn12, 10.2 mM, 70.0 °C, 2.5 h): 80.4%
CN1CCNC(=O)COc2ccc(F)cc2C(=O)N2CCCCC2c2cc3nc(N4CCC(N)C4)cc1n3n2 [Example 1, (18aS)-13-[(3S)-3-aminopyrrolidin-1-yl]-2-fluoro-11-methyl-8,9,10,11,19,20,21,22-octahydro-18aH,24H-18,15-(metheno)pyrido[2,1-l]pyrimido[6,1-h][1,4,7,9,10,13]benzoxapentaazacyclohexadecine-7,24(6H)-dione] | 2.07 | 3.17 | –
CN1CCNC(=O)COc2ccc(F)cc2C(=O)N2CCCC[C@H]2c2cc3nc(N4CCC4)cc1n3n2 [Example 2, (18aS)-13-(azetidin-1-yl)-2-fluoro-1-methyl-8,9,10,11,19,20,21,22-octahydro-18aH,24H-18,15-(metheno)pyrido[2,1-l]pyrimido[6,1-h][1,4,7,9,10,13]benzoxapentaazacyclohexadecine-7,24(6H)-dione] | 0.8 | 3.06 | –
CN1CCCNC(=O)COc2ccc(F)cc2C(=O)N2CCCC[C@H]2c2cc3nc(N4CC(N)C4)cc1n3n2 [Example 57, (19aS)-14-(3-aminoazetidin-1-yl)-2-fluoro-12-methyl-9,10,11,12,20,21,22,23-octahydro-6H, 19aH,25H-19,16-(metheno)pyrido[2,1-m]pyrimido[6,1-i][1,4,8,10,11,14]benzoxapentaazacycloheptadecine-7,25(8H)-dione] | 2.11 | 12.6 | –
Cc1ccc2c(c1)C(=O)N1CCCCC1c1cc3nc(N4CCC(N)C4)cc(n3n1)N(C)CCCCO2 [Example 244, (23aS)-18-[(3S)-3-aminopyrrolidin-1-yl]-8,16-dimethyl-1,3,4,13,14,15,16,23a-octahydro-2H, 6H,12H-23,20-(metheno)pyrido[2,1-k]pyrimido[6,1-g][1,6,8,9,12]benzoxatetraazacyclopentadecin-6-one hydrochloride] | 4.01 | 7.34 | –
CN1CCOCCOc2ccc(Cl)cc2C(=O)N2CCCC[C@H]2c2cc3nc(N4CC(N)C4)cc1n3n2 [Example 298, (18aS)-13-(3-aminoazetidin-1-yl)-2-chloro-11-methyl-6,7,10,11,19,20,21,22-octahydro-9H,18aH,24H-18,15-(metheno)pyrido[2,1-l]pyrimido[6,1-h][1,4,7,9,10,13]benzodioxatetraazacyclohexadecin-24-one] | – | 3.13 | –
[2H]C([2H])([2H])c1ccc2c(c1)C(=O)N1CCCCC1c1cc3nc(C4CC(O)C4)cc(n3n1)N(C([2H])([2H])[2H])CCNC(=O)CO2 [Example 120, (18aS)-13-(trans-3-hydroxycyclobutyl)-2,1I-bis[trideuteriomethyl]-8,9,10,11,19,20,21,22-octahydro-18aH,24H-18,15-(metheno)pyrido[2,1-l]pyrimido[6,1-h][1,4,7,9,10,13]benzoxapentaazacyclohexadecine-7,24(6H)-dione] | 0.45 | 0.639 | –
[2H]C([2H])([2H])N1CCNC(=O)COc2ccc(Cl)cc2C(=O)N2CCCCC2c2cc3nc(C4CC(O)C4)cc1n3n2 [Example 115, (18aS)-2-chloro-13-(trans-3-hydroxycyclobutyl)-11-trideuteriomethyl-8,9,10,11,19,20,21,22-octahydro-18aH,24H-18,15-(metheno)pyrido[2,1-l]pyrimido[6,1-h][1,4,7,9,10,13]benzoxapentaazacyclohexadecine-7,24(6H)-dione] | 0.344 | 0.777 | –
CC1CCNC(=O)COc2ccc(Cl)cc2C(=O)N2CCCCC2c2cc3nc(C4CC4)cc1n3n2 (single isomer, unassigned) [Example 124a] | – | 7.23 | –
[2H]C([2H])([2H])c1ccc2c(c1)C(=O)N1CCCC[C@H]1c1cc3nc(C4CC4)cc(n3n1)N(C)CCNC(=O)CO2 [Example 100, (18aS)-13-cyclopropyl-11-methyl-2-trideuteriomethyl-8,9,10,11,19,20,21,22-octahydro-18aH,24H-18,15-(metheno)pyrido[2,1-l]pyrimido[6,1-h][1,4,7,9,10,13]benzoxapentaazacyclohexadecine-7,24(6H)-dione] | 0.328 | 0.678 | –
Cc1ccc2c(c1)C(=O)N1CCCC[C@H]1c1cc3nc(N4CC(O)C4)cc(n3n1)N(C)CCNCCO2 [Example 171, (18aS)-13-(3-hydroxyazetidin-1-yl)-2,11-dimethyl-6,7,8,9,10,11,19,20,21,22-decahydro-18aH,24H-18,15-(metheno)pyrido[2,1-l]pyrimido[6,1-h][1,4,7,9,10,13]benzoxapentaazacyclohexadecin-24-one] | – | 4.19 | –
CN1CCCS(=O)(=O)Nc2ccc(Cl)cc2C(=O)N2CCCCC2c2cc3nc(N4CCC(N)C4)cc1n3n2 [Example 312, (23aS)-18-[(3S)-3-aminopyrrolidin-1-yl]-8-chloro-16-methyl-1,3,4,13,14,15,16,23a-octahydro-2H,6H-23,20-(metheno)-12h-pyrido[2,1-k]pyrimido[6,1-g][2,1,6,8,9,12]benzothiapentaazacyclopentadecine-6,12,12(11H)-trione] | 4.05 | 31.8 | –
